A short description of the assay: blockers of mitochondrial fusion, WT vs mutant – cell-based, chemical genetic, wild-type and mutant, confirmation (AID 1361). The conditions noted are these: Cell-based mitochondrial fusion phenotype, imaging.
Where [1] appears, read: mutant cells, measured here: mutant cell line IC50.

As a reminder, the IC50 is the concentration that gives 50% inhibition. Broadly, the pIC50 is the negative decadic logarithm of the IC50, by convention in mol/L.

pIC50: −log10 of the molar value. Activity calls are given as the source filed them. No rule for the calls is given here.

Regarding `COc1ccc(C2C(C#N)=C(SC)NC3=C2C(=O)CC(C)(C)C3)cc1` (centres undefined), the IC50 (WT cells) was > 25 µM (inactive). Further, the pIC50 under setting [1] was < 4.60.
Turning to `NS(=O)(=O)c1ccc(N2N=C(c3ccccc3)CC2c2ccccc2)cc1` (centres undefined), the pIC50 is 4.92 (WT cells) and < 4.60 under setting [1].
As to `COc1ccc2nc(NC(=O)c3cccc(OCc4c(C)noc4C)c3)sc2c1`, the IC50 (WT cells) is > 25 µM (inactive). The negative-log IC50 (pIC50) under setting [1] was < 4.60.
For `CC(C)Nc1nc(Oc2cccc(Cl)c2Cl)cc(C(F)(F)F)n1`, the pIC50 was 4.63 (WT cells) and < 4.60 under setting [1].
Consider `Cc1ccc(-c2cc(C(F)F)n3ncc(C(=O)Nc4c(C)nn(Cc5ccccc5Cl)c4C)c3n2)cc1`, for which the negative logarithm of the IC50 (pIC50) runs as follows: (WT cells) 4.79; under setting [1], < 4.60.
The matching figures for `Cc1ccc(Cl)cc1N1CCN(CC(=O)NC2CCCc3ccccc32)CC1` (centres undefined): 4.94 and 4.63.
`S=c1[nH]nc(-c2ccc3ccccc3n2)n1-c1cc(Cl)cc(Cl)c1`: the pIC50 was 4.86 (WT cells) and < 4.60 under setting [1].
In the case of `Cc1cccc(OCC(=O)Nc2nc3ccc([N+](=O)[O-])cc3s2)c1C`, under “WT cells”, the IC50 was > 25 µM (inactive). Under setting [1], the negative-log IC50 (pIC50) was < 4.60.
With `CCn1c(O)c(C(c2ccccn2)c2c(O)n(CC)c(=S)[nH]c2=O)c(=O)[nH]c1=S`, the IC50 (WT cells) is > 25 µM (inactive). Further, the negative-log IC50 (pIC50) under setting [1] was < 4.60.
The corresponding values for `Cc1ccc2c(CSc3nnc(C4CC4)n3N)cc(=O)oc2c1C` are > 25 µM (inactive) and < 4.60.
In the case of `COC(=O)C1=C(Nc2ccc(C)cc2)C=C(C)C(C(=O)OC)C1c1ccc(F)cc1` (centres undefined), the pIC50 by setting is: (WT cells) 5.18; under setting [1], < 4.60.
The matching figures for `CC(C)SCc1cc(N2CCCC2)nc(-c2ccccc2)n1`: 4.63 and < 4.60.
On to `O=C(CCCCCn1c(=S)[nH]c2cc3c(cc2c1=O)OCO3)N1CCN(C(=O)c2ccco2)CC1`, for which the IC50 (WT cells) is > 25 µM (inactive). Further, the negative logarithm of the IC50 (pIC50) under setting [1] is < 4.60.
`N#C/C(=C\c1cccc(NC(=O)c2ccccc2Cl)c1)C(=O)NCCc1ccccc1`: the negative logarithm of the IC50 (pIC50) by setting is: (WT cells) 4.96; under setting [1], < 4.60.
In the case of `CCOC(=O)c1c(-c2ccc(C)cc2)csc1NC(=O)C1CCCO1` (centres undefined), the IC50 (WT cells) was > 25 µM (inactive). Besides, the negative-log IC50 (pIC50) under setting [1] is < 4.60.
As to `C=C(C)c1cccc(C(C)(C)NC(=O)Nc2ccc(Cl)cn2)c1`, the negative-log IC50 (pIC50) is 4.89 (WT cells) and < 4.60 under setting [1].
On to `COC(=O)c1ccc(CSc2nc3ccccc3c(=O)n2CC(C)C)o1`, for which the IC50 (WT cells) was > 25 µM (inactive). In addition, the pIC50 under setting [1] is < 4.60.
The corresponding values for `Cc1sc(NC(=O)CSc2nnnn2C2CCCCC2)c(C#N)c1C` are > 25 µM (inactive) and < 4.60.
As for `Cc1cc(Br)c(OCc2ccc(C(=O)N/N=C3\CC4CC=CC34)cc2)c(Br)c1` (centres undefined), the pIC50 (WT cells) is 5.10 and the negative-log IC50 (pIC50) under setting [1] was 4.85.
For `C/C(=N\Nc1cc(-c2ccccc2)nc(-c2ccccc2)n1)c1ccc(O)c(C)c1`, the pIC50 is 5.48 (WT cells) and < 4.60 under setting [1].
For the compound `COC(=O)CNC(c1ccccc1)c1cc(Cl)ccc1NC(=O)c1cccc(Cl)c1` (centres undefined), the pIC50 (WT cells) was 4.98 and the pIC50 under setting [1] was < 4.60.
As for `CCCOP(=O)(OCCC)C(Nc1cccc(C(F)(F)F)c1)c1ccc(C)cc1` (centres undefined), the negative logarithm of the IC50 (pIC50) was 4.95 (WT cells) and < 4.60 under setting [1].
The matching figures for `CC(C(=O)Nc1ccc(Cl)cc1Cl)N1CC=C(c2ccccc2)CC1` (centres undefined): 5.06 and 4.88.
With `COc1ccc(C(=O)Nc2ccc(Cl)cc2C(=O)NCCN2CCOCC2)cc1`, the IC50 (WT cells) was > 25 µM (inactive). Moreover, the pIC50 under setting [1] is < 4.60.
In the case of `CCN(Cc1ccccc1)c1ccc(/C=N/NC(=S)NC(C)C)cc1`, the pIC50 runs as follows: (WT cells) 5.30; under setting [1], < 4.60.
The matching figures for `CC1(c2ccc([N+](=O)[O-])cc2)CC(C)(C)N(C(=O)c2ccccc2)c2ccccc21` (centres undefined): 5.77 and 5.39.
The corresponding values for `Cc1ccc(NC(=S)Nc2ccc(C(C)C)cc2)cc1S(=O)(=O)N1CCCCCC1` are 4.82 and < 4.60.
For the compound `CCCCCC(=O)Nc1cc(N(C)C)nc2ccccc12`, under “WT cells”, the IC50 was > 25 µM (inactive). Under setting [1], the negative logarithm of the IC50 (pIC50) is < 4.60.
As to `COc1cc(CNn2cn[nH]c2=S)cc(Br)c1OCc1ccccc1F`, the pIC50 is, setting by setting: (WT cells) 4.71; under setting [1], < 4.60.
In the case of `CCOc1cc(C(=O)N(C)Cc2cc3ccccc3[nH]c2=O)cc(OCC)c1OCC`, the IC50 (WT cells) is > 25 µM (inactive). Also, the pIC50 under setting [1] is < 4.60.
With `O=C(CSc1nnc(CCc2ccccc2)n1-c1ccc(Cl)cc1)c1ccccc1`, the pIC50 reads like this: (WT cells) 4.77; under setting [1], < 4.60.
Take `O=S(Cc1ccc(Br)cc1)Cc1nnc(SCc2ccc(Br)cc2)n1-c1ccccc1` (centres undefined): the negative-log IC50 (pIC50) is 4.86 (WT cells) and < 4.60 under setting [1].
Regarding `Cc1cccc(N2CCN(C(c3cccs3)c3nnnn3C(C)(C)C)CC2)c1C` (centres undefined), the negative logarithm of the IC50 (pIC50) was 4.96 (WT cells) and < 4.60 under setting [1].
Take `C/C=C(\C)CN1CCN(c2cc(C)ccc2C)CC1`: the IC50 (WT cells) was > 25 µM (inactive). Under setting [1], the pIC50 is < 4.60.
The corresponding values for `FC(F)(F)c1cnc(Sc2nc3nccc(-c4ccc(Cl)cc4)n3n2)c(Cl)c1` are > 25 µM (inactive) and < 4.60.
Regarding `CCc1ccccc1N(C1=NCCCS1)S(=O)(=O)c1ccc(C(C)(C)C)cc1`, the pIC50 (WT cells) is 5.12 and the negative-log IC50 (pIC50) under setting [1] is < 4.60.
For the compound `Cc1ccc(Cl)cc1N1CCN(C(=O)c2cccc3c(=O)c(C)c(-c4ccccc4)oc23)CC1`, the pIC50 reads like this: (WT cells) 5.01; under setting [1], < 4.60.
As to `Cc1c(N(C(=O)Nc2ccccc2)C2=NCC(C)S2)c(=O)n(-c2ccccc2)n1C` (centres undefined), the IC50 (WT cells) is > 25 µM (inactive). The negative-log IC50 (pIC50) under setting [1] is < 4.60.
The matching figures for `O=C(NC1CCS(=O)(=O)C1)c1ccc(-c2ccc(Br)cc2)o1` (centres undefined): > 25 µM (inactive) and < 4.60.
With `c1csc(C(c2nnnn2C2CCCCC2)N2CCCC3(CCCCC3)C2)c1` (centres undefined), the pIC50 reads like this: (WT cells) 5.38; under setting [1], < 4.60.
Consider `Cc1c(C)c2ccc(OC3CCCCC3=O)cc2oc1=O` (centres undefined), for which, under “WT cells”, the IC50 is > 25 µM (inactive). The pIC50 under setting [1] was < 4.60.
On to `COc1ccccc1NC(=O)COC(=O)c1ccc([N+](=O)[O-])s1`, for which the pIC50 (WT cells) was 5.22 and the negative-log IC50 (pIC50) under setting [1] was 4.71.
For `CCCNC(=S)Nc1ccc2nc(-c3ccccn3)c(-c3ccccn3)nc2c1`, the IC50 (WT cells) was > 25 µM (inactive). Also, under setting [1], the negative logarithm of the IC50 (pIC50) is < 4.60.
The matching figures for `C[C@@H](C[C@@H](O)[C@H](O)C(C)(C)O)[C@@H]1CC[C@]2(C)C3=CC[C@H]4C(C)(C)C(=O)CC[C@]4(C)[C@H]3CC[C@@]12C`: > 25 µM (inactive) and < 4.60.
In the case of `Cc1cc(Oc2cnn(C(C)(C)C)c(=O)c2Cl)cc(C(C)C)c1`, the negative logarithm of the IC50 (pIC50) reads like this: (WT cells) 4.77; under setting [1], < 4.60.
Consider `Cc1ccnc(NS(=O)(=O)c2ccc(N=CC3=C(O)CC(C)(C)CC3=O)cc2)n1`, for which the IC50 (WT cells) is > 25 µM (inactive). In addition, the negative logarithm of the IC50 (pIC50) under setting [1] was < 4.60.
`COc1ccccc1-c1cc(C(F)(F)F)nc(NCc2cccs2)n1`: the negative-log IC50 (pIC50) (WT cells) is 4.95 and the negative logarithm of the IC50 (pIC50) under setting [1] is < 4.60.
In the case of `CC1CN(C(=O)N(C)C)CCN1C(=O)N(C)C` (centres undefined), where the note is “WT cells”, the IC50 is > 25 µM (inactive). Besides, under setting [1], the pIC50 was < 4.60.
The corresponding values for `N/C(Cc1ccccc1)=N\OC(=O)c1cccc2ccccc12` are 14.8 µM (inactive) and 4.84.
In the case of `CC(C)/C(=N/Nc1ccccc1[N+](=O)[O-])c1ccccc1`, the IC50 (WT cells) was > 25 µM (inactive). The negative-log IC50 (pIC50) under setting [1] is < 4.60.
For `NC(=O)c1ccc(N2CCCCC2)c(N2C(=O)C3CC=CCC3C2=O)c1` (centres undefined), the IC50 (WT cells) was > 25 µM (inactive). Under setting [1], the negative-log IC50 (pIC50) was < 4.60.
For the compound `O=C(Nc1ccc2c(c1)nc1n2CCN(Cc2ccccc2)C1)c1cccs1`, the IC50 (WT cells) was > 25 µM (inactive). Further, under setting [1], the pIC50 was < 4.60.
In the case of `Cc1ncsc1C(=O)N1N=C2/C(=C/c3ccccc3)CCCC2C1c1ccccc1` (centres undefined), the pIC50 is 4.99 (WT cells) and < 4.60 under setting [1].
On to `Cc1cc(C)nc(NC2=NCC(=O)N2c2ccc3c(c2)OCCO3)n1`, for which the IC50 (WT cells) is > 25 µM (inactive). Under setting [1], the negative-log IC50 (pIC50) was < 4.60.
In the case of `O=C(Nn1c(C2CCCCC2)nc2ccccc2c1=O)c1ccc(Cl)c([N+](=O)[O-])c1`, the pIC50 is 4.83 (WT cells) and < 4.60 under setting [1].
As to `O=C(COC(=O)CCCOc1ccc(Cl)cc1Cl)Nc1cccc(Cl)c1`, for the setting “WT cells”, the IC50 is 24 µM (inactive). The pIC50 under setting [1] was 4.64.
Regarding `O=C(CCc1ccccc1)Nc1ncc2c(n1)CCCC2=O`, the IC50 (WT cells) was > 25 µM (inactive). Moreover, under setting [1], the pIC50 was < 4.60.
With `Cc1ccc(/C=N/NC(=O)COc2ccccc2-c2ccccc2)cc1`, the pIC50 reads like this: (WT cells) 4.83; under setting [1], < 4.60.
Turning to `O=C1NC(Nc2nc3ccccc3s2)(C(F)(F)F)C(=O)N1C1CCCCC1` (centres undefined), the pIC50 is 4.70 (WT cells) and < 4.60 under setting [1].
The corresponding values for `CCOc1ccc(Oc2c(/C=N/NC(=O)COc3ccccc3OC)c(C)nn2-c2ccccc2)cc1` are 4.83 and < 4.60.
Consider `COCCCn1c(SCC(=O)NC(C)(C)C)nnc1-c1ccccc1`, for which the IC50 (WT cells) is > 25 µM (inactive). Further, the negative logarithm of the IC50 (pIC50) under setting [1] is < 4.60.
`O=C(Nc1ccc(Cl)c(Cl)c1)c1ccc(Cn2cc(Cl)cn2)cc1`: the negative-log IC50 (pIC50) is 5.07 (WT cells) and 4.73 under setting [1].
For the compound `CCOP(=O)(OCC)c1nc(/C=C/c2ccccc2)oc1NCc1ccccc1`, for the setting “WT cells”, the IC50 is > 25 µM (inactive). For the same compound, the pIC50 under setting [1] is < 4.60.
For `CCOc1ccc(C(C(=O)NC2CCCC2)N(Cc2ccccc2)C(=O)c2nsc(Cl)c2Cl)cc1` (centres undefined), the negative-log IC50 (pIC50) (WT cells) is 4.92 and the negative logarithm of the IC50 (pIC50) under setting [1] was < 4.60.
In the case of `CCOc1ccc(C(=O)C(CCC(CN(C)C)C(=O)c2ccc(OCC)cc2)CN(C)C)cc1` (centres undefined), the negative logarithm of the IC50 (pIC50) by setting is: (WT cells) 4.69; under setting [1], < 4.60.
As to `CCOc1ccc(NC(=S)NN(C)C(=S)Nc2ccc(OCC)cc2)cc1`, where the note is “WT cells”, the IC50 is > 25 µM (inactive). In addition, the negative logarithm of the IC50 (pIC50) under setting [1] was < 4.60.
In the case of `Cc1ccc(Cn2nc3c(cc2=O)CCc2ccccc2-3)cc1`, the IC50 (WT cells) is > 25 µM (inactive). Moreover, the pIC50 under setting [1] is < 4.60.
